Columns and labels:
[1] = test system: embryonic atrial-like cardiomyocytes; assay: Intracellular action potential recording with sharp microelectrodes, embryonic atrial-like cardiomyocytes in EBs; format: cell-based, human
Description: The applicants here have determined that the HERG channel response of cardiomyocytes in culture created from human embryonic stem cells can be tested and that they do have the same responsive characteristics as mature heart cells in adult humans. Shown in FIG. 5 is an experiment conducted on an atrial type cell, which is a cardiomyocyte in an EB in culture. Note that the electrical profile of the potential generated by that cell, labeled basal in FIG. 5, is characteristic of an embryonic atrial type action potential. To the culture in which that basal signal was being observed, 500 nanomolar E4031 was added. E4031 is a known highly specific HERG channel blocker which blocks the rapid delayed rectifying potassium current (IKr) in adult human heart cells. The addition of that chemical to the medium in which the EB was cultured led to the modification of the action potential generated by that atrial type cell, as illustrated by the curve marked “500 nM E4031” in FIG. 5. The action potential was prolonged due to delayed return to a resting state. This is precisely the effect that this molecule, E4031, is known to have on adult heart cells and precisely the effect that one would predict from the blockage of the HERG channel.
(§1) A single beating, microdissected EB outgrowth was cultured on a glass coverslip for 1-10 days. The coverslip was then attached to the bottom of an experimental chamber mounted on an inverted microscope (Nikon Diaphot 200). The EBs were perfused with Tyrodes solution consisting of (mmol/L): 140 NaCl, 1 MgCl2, 10 HEPES, 10 Glucose, 1.8 CaCl2, pH 7.4 with NaOH at 37° C. Contractions were measured using video edge detection. For intracellular electrophysiology experiments, sharp glass microelectrodes were fabricated with resistances of 30-100 MΩ when filled with 3 mol/L KCl. Spontaneously beating EBs were impaled with the microelectrodes and pipette capacitance was nulled. […] In some experiments, the preparation underwent electrical field stimulation at rates from 1 to 3 Hz. Data were digitized at 20 kHz and filtered at 2 kHz. APs were analyzed using pClamp8.02 (Axon Instruments, Foster City, Calif.) and Origin 6.0 software (Microcal Inc, Northampton, Mass.) to determine AP duration at 50% and 90% of repolarization (APD50 and APD90), AP amplitude (APA), maximum diastolic potential (MDP), and the maximum rate of rise of the AP upstroke (dV/dtmax).
Repolarization of the cardiac action potential is due to multiple ionic currents with an important role played by voltage gated K+ channels; however, there is significant species variability of the exact type of K+ channels present. In human heart, current through HERG potassium channels (KCNH2), IKr, plays a major role in repolarization of the action potential. […]

[2] = test system: embryonic ventricular-like cardiomyocytes; format: cell-based; details: 500 nM E-4031
[3] = test system: human embryonic stem cell-derived cardiomyocytes; assay: Intracellular action potential recording with sharp microelectrodes, cell type not specified; format: cell-based; details: 500 nM E-4031
Description: as §1
Repolarization of the cardiac action potential is due to multiple ionic currents with an important role played by voltage gated K+ channels; however, there is significant species variability of the exact type of K+ channels present. […]

[4] = test system: human embryonic stem cell-derived cardiomyocytes (beating EB outgrowths); assay: Contraction measurements of beating EB outgrowths by video edge detection during electrical field stimulation; format: cell-based; details: 1 micromolar, EB electrically stimulated at 1 hertz, basal level defined as 100, FIG. 1
Description: One problem in the testing of cardiomyocytes in EBs is that the rate of spontaneous beating is variable can be dependent on a variety of factors. […] This can be readily done by applying an electrical field stimulation to the EB. This is done most simply by applying electrodes to opposite sides of the culture container in which the EB is contained. […] It is necessary as a part of this process to maintain the EB culture at a constant temperature, since temperature changes can also effect the amplitude of EB beats. It is possible to optically scan the EBs during such beating, using imaging processing observing the EB with video microscopy, to determine the amplitude of the beats which occur in such an EB. […] Additionally other properties of the beat can be monitored such as the rate of contraction and relaxation of the embryoid body providing additional mechanistic information. […]
Contractions were measured using video edge detection. […] Individual beating EBs were monitored with Video Edge Detector VED 105 (Crescent Electronics) through CCD BW Camera NL-2332 (National Electronic) and Sony BW Video Monitor PVM-97 (Sony Corp). The twitch responses at sharp edge of beating EB outgrowth were recorded at 1 kHz through DigiData 1200 A/D converter with pClamp 8.2 acquisition software (both from Axon Instrument, Foster City, Calif.). […]

Compound | APD50 ([1]; 500 nM E-4031) | APD90 ([1]; 500 nM E-4031) | action potential duration ([1]; 500 nM E-4031) | action potential duration ([1]; 500 nanomolar E4031 added to EB culture, atrial type cell, FIG. 5) | APD50 [2] | action potential duration [2] | APD90 ([2]; larger effect on APD90 than APD50) | APA (action potential amplitude) [3] | MDP (maximum diastolic potential) [3] | amplitude of the beat or contraction of the EB [4]
Cc1cccc(CCN2CCC(C(=O)c3ccc(NS(C)(=O)=O)cc3)CC2)n1 [E-4031] | not APD50 was significantly prolonged | significantly prolonged | action potential prolongation | prolonged | significant prolongation | action potential prolongation | significant prolongation | not statistically significant effects | not statistically significant effects | 
CC(C)NCC(O)c1ccc(O)c(O)c1 (stereo not shown) [isoproterenol] |  |  |  |  |  |  |  |  |  | increases dramatically
